Experimental data as given in patent US20110281179A1, “NON-AQUEOUS ELECTROLYTIC SOLUTION, AND LITHIUM BATTERY COMPRISING SAME” (UBE INDUSTRIES, LTD., priority 2008, published 2011).

test: pKa (acid dissociation constant); format: physicochemical
Excerpt: Here, the pKa value is also called an acid dissociation constant, and the pKa can be measured by an ordinary method. For example, the pKa can be determined in accordance with the method described in Experimental Chemistry Seminar 5 “Thermal Measurement and Equilibrium”, p. 460 (edited by the Chemical Society of Japan, published by Maruzen Company, Limited.).

In order of falling pKa:
1. Oc1ccc(F)cc1 [4-Fluorophenol]  9.9
2. Oc1ccc(F)cc1F [2,4-Difluorophenol]  8.4
3. Oc1ccc(F)c(F)c1F [2,3,4-Trifluorophenol]  6
4. Oc1c(F)c(F)cc(F)c1F [2,3,5,6-Tetrafluorophenol]  5.5
5. Oc1c(Cl)c(Cl)c(Cl)c(Cl)c1Cl [Pentachlorophenol]  4.7
